Measured values: US20130316022A1, “METHOD TO ENHANCE ANTIMICROBIAL ACTIVITY BY INCREASING pH” (University of Iowa Research Foundation, priority 2012, published 2013)

Legend:
[1] = ASL pH measured in vivo with pH-sensitive planar optode on tracheal surface; parameters: species or system pig
Excerpt: To assess pH in vivo, we used non-invasive dual lifetime referencing to interrogate a 3×3 mm planar optode (pH sensitive foil, PreSens GmbH, Regensburg, Germany)^13 applied directly to the tracheal surface. The device used to transmit and receive the excitation and emission light was a single channel pH meter (pH-1 mini; PreSens GmbH). The tip of the fiberoptic pH meter was kept at the same distance from the tracheal surface in all samples and confirmed by recording the amplitude registered by the device. Calibration before each set of measurements was done by placing the planar optode on the surface of a flat filter soaked in standard pH buffers.
(§1) To decrease airway pH in non-CF pigs, CO2 concentration was controlled in a humidified chamber (100% measured relative humidity, 25-30° C.) using 0 or 15% CO2 and 21% O2 in N2.

[2] = test system: S. aureus isolate 43SA; experiment: Bacterial killing by S. aureus-coated grids placed on tracheal surface in vivo
Description: Bacteria were cultured to log phase growth and 1×10^8 bacteria were mixed with 0.1 mg/ml N-hydroxysulfosuccinimide (sulfo-NHS)-biotin (Thermo Scientific) for 1 hour at room temperature. Streptavidin-coated grids were then incubated with biotinylated bacteria for 30 minutes and rinsed in PBS.
Bacteria-coated grids were used in three preparations. They were placed on the airway surface in vivo in pigs. They were tested in ASL removed from pigs after methacholine stimulation. They were also placed on the apical surface of primary cultures of differentiated airway epithelia. In each case, after removal from ASL, they were immediately (2-3 seconds) rinsed with PBS and then immersed in PBS containing the fluorescent indicators SYTO 9 and propidium iodide (Live/Dead BacLight™ Bacterial Viability assay, Invitrogen). Propidium iodide staining and this assay indicate the percentage of dead cells (Invitrogen, Molecular Probes product information and Fig. S7). […]
(§2) For each experimental condition, time point, and/or animal, 2 or 3 grids were examined. For each grid, all live and dead bacteria were counted in 5-16 individual microscopic (60×) fields; each microscopic field contained about 100-1000 bacteria. […]
as §1

[3] = test system: S. aureus; conditions: bacteria on grids exposed for 30 seconds
Description: Gold grids (TEM grids, 200 mesh, Ted Pella Inc.) were immersed in 1 mM 11-mercaptoundecanoic acid (HS(CH2)10COOH, MUA, Aldrich) solution for 30 minutes at room temperature and then exposed to 1-ethyl-3-(3-diethylaminopropyl)carbodiimide (EDC) and N-hydroxysuccinimide (NHS) (molar ratio 1:2) for 30 minutes to activate the carboxyl groups of MUA. Grids were then placed in a phosphate buffer solution (PBS), pH 7.4, containing 10 μg/ml streptavidin (Sigma) for 30 minutes and then rinsed with PBS. Streptavidin-coated grids were immersed in 1 M glycine for 30 minutes to quench the reaction and then rinsed with PBS. We used S. aureus isolate 43SA (isolated from a CF pig with pulmonary infection^5), and P. aeruginosa PAO1. […] Bacteria were cultured to log phase growth and 1×10^8 bacteria were mixed with 0.1 mg/ml N-hydroxysulfosuccinimide (sulfo-NHS)-biotin (Thermo Scientific) for 1 hour at room temperature. Streptavidin-coated grids were then incubated with biotinylated bacteria for 30 minutes and rinsed in PBS.
Bacteria-coated grids were used in three preparations. They were placed on the airway surface in vivo in pigs. […]
as §2

In the case of `O=C=O` [CO2, reference compound], the “ASL pH” value ([1]; non-CF pigs, tracheas exposed to 15% CO2 in vivo) was 6.89 ± 0.15 (6) and the “% dead” value ([2]; non-CF pigs, 15% CO2, grids on surface for 30 seconds) was 18.5 ± 6.8 (4) %.

For `O=C([O-])O.[Na+]` [NaHCO3], the “ASL pH” value ([1]; CF pigs, 50 μL 100 mM aerosolized onto airway surface) was 7.43 ± 0.30 (7) and the “% dead” value ([2]; CF pigs, 50 μL 100 mM aerosolized onto airway surface, grids 30 seconds) was 64.4 ± 7.0 (5) %.

In the case of ethanol [70% alcohol], the “% dead” value [3] was 97%.
